Patent publication US10822310B2, “Prevention and treatment of human metabolic syndrome including type 2 diabetes, steatohepititis and related conditions using non-absorbable, orally administered compounds” (priority 2017, dated 2020)

Assays:
[1] = rate studies of reaction with methyl glyoxal by reverse phase HPLC; settings: pH 7, aqueous solution
GLP-1 = test: in vitro protection of GLP-1 from methyl glyoxal (UPLC/TOF-MS); assay type: biochemical; settings: 0.62 mM peptide, 30 mM phosphate buffer pH 7.4, 20 equiv methyl glyoxal, 37 degrees C, 3 hours, 5 equiv compound relative to methyl glyoxal
Procedure: In order to test further the hypothesis that intestinal peptide hormones might be compromised by the chemical action of gut microbial products, in vitro studies were carried out with GLP-1, PYY and Oxyntomodulin. For these studies methyl glyoxal was selected as electrophile because it is a well-known microbial metabolite and also relevant to metabolic syndrome, T2D and diabetic neuropathy; see Diabetes, 63, 50-52 (2014); Biochemical Soc. Transact, 42, 450-456 (2014); Clinical Sci., 128, 839-861 (2015); Hypertension, 56, 471-476 (2010). Methyl glyoxal has also been implicated in neurodegenerative diseases—see Neuroscience, 9, 1-12 (2015). […] Methyl glyoxal can be detected in blood in amounts that correlate with the severity of T2D. […]
The results of the in vitro studies that have been carried out using methyl glyoxal and each of three intestinal peptide hormones, GLP-1, PYY (a satiety-sensing hormone), and Oxyntomodulin, can be summarized as follows: • 1. […] The mixture was cooled to ambient temperature and analyzed by ultra-high pressure liquid chromatography (Agilent 1290 UPLC) coupled with detection by triple time of flight mass spectrometry (Scitex 5600 TRIPTOF mass spectrometer), each aliquot being diluted with 20% aqueous acetic acid. • 2. […]

FATZO mice = test: in vivo study in polygenic FATZO mouse model of metabolic syndrome, T2D and obesity
Procedure: (§1) In order to test the hypothesis that a non-absorbable compound which is confined to the GI tract can favorably affect metabolic syndrome T2D and related conditions in vivo studies were carried out with I/II using a polygenic mutant strain of mice that develop metabolic syndrome, T2D and obesity when fed a high fat (“Western type”) diet. This polygenic mouse model (“FATZO” mouse), developed by Eli Lilly Co. and PreClinOmics (now Crown Bio, Indianapolis, Ind.), has been described in detail (PLoS ONE, 12, 1-15 (2017). FATZO mice on a high fat diet generally gain weight, gradually become obese, and develop hyperglycemia, hypertension, glucose intolerance, insulin insensitivity and severe T2D. A group of FATZO mice were placed on a high fat diet (HFD) for an initial three-week ‘base’ period after which they were divided into two groups: Group 1 (the treated group) was maintained on a HFD along with 5 mg/day of I/II, administered in water by gavage. […] Blood glucose levels of the treated group were stabile and after six weeks about 50% below those of the untreated group. […] A third group of FATZO mice was maintained on a standard diet of ordinary mouse chow and also treated with 5 mg/day of I/II.

[2] = analysis of blood of treated mice by HPLC/mass spectrometry (absorption from GI tract); assay type: in vivo; settings: treated FATZO mice
Procedure: as §1

[3] = standard diet of ordinary mouse chow, 5 mg/day, six weeks

CN(C)C(=N)N=C(N)N [metformin]
reactivity (rate) toward methyl glyoxal relative to N-tosyl-arginine methyl ester [1]: less than one-tenth the rate

NCc1nc2cc(S(=O)(=O)O)ccc2[nH]1 [I, 2-(Aminiomethyl)-1H-benzol[d]imidazole-5-sulfonate]
pKa (physchem): ~7.7

NCc1nc2cc(S(=O)(=O)O)ccc2[nH]1 [I/II]
GLP-1 remained unchanged (GLP-1): greater than 95% | fasting blood glucose level below that of untreated group (FATZO mice; high fat diet, 5 mg/day by gavage in water, after six weeks): about 50% | body weight gain (FATZO mice; high fat diet, 5 mg/day by gavage, six weeks (untreated gained 2% per week)): no weight gain | behavior (FATZO mice; [3]): completely normal behavior | body weight gain (FATZO mice; [3]): no weight gain | increase in fasting blood glucose levels (FATZO mice; [3]): no increase in fasting blood glucose levels | absorption from the GI tract after oral administration [2]: no detectable absorption | test compound in blood ([2]; oral administration, HPLC/mass spectrometry): < 0.01 mg. per mouse
